In one assay the target is Hco-26/27 receptor (Haemonchus contortus, UniProt A9XX30+S4VAP0). Nature of the assay: cell-based. From the text:
In order to investigate if the overlapping expression contributed to functional receptors, we co-expressed Hco-ACR-26 and Hco-ACR-27 in Xenopus laevis oocytes. We have previously reported that the functional expression of nematode muscle AChRs in Xenopus oocytes requires the addition of ancillary proteins. Therefore, cRNAs encoding the subunits Hco-ACR-26 and Hco-ACR-27, in combination with three ancillary proteins (Hco-ric-3.1, Hco-unc-74 and Hco-unc-50) were co-injected into Xenopus oocytes. […] Subsequently, different cRNA combinations were injected into Xenopus oocytes in order to determine the minimal subunit combination leading to the expression of a functional receptor and verify the ancillary factor requirement.
The subunit stoichiometry has been previously reported to impact the pharmacological properties of some nematode AChRs expressed in Xenopus oocytes.
(§1) H. contortus and P. equorum acr-26 and acr-27 cDNAs were PCR-amplified using primers containing a restriction site in order to be sub-cloned into the expression vector pTB207 that is suitable for in vitro transcription. Primers are listed in S3 Table. The resulting plasmids were linearized with the NheI restriction enzyme (Fermantas) and used as templates for cRNA synthesis using the T7 mMessage mMachine kit (Ambion). Xenopus laevis ovaries were obtained from the University of Rennes, France (CRB Xenope) and defolliculated using 2 mg/ml collagenase type II (Gibco) in the incubation solution containing: 100 mM NaCl, 2 mM KCl, 1.8 mM CaCl2.2H2O, 1 mM MgCl2.6H2O, 5 mM HEPES, 2.5 mM C3H3NaO3, pH 7.5, supplemented with penicillin 100 U/mL and streptomycin 100 μg/mL). The oocytes were injected in the animal pole with a total volume of 36 nL of cRNA mix containing 50 ng/μL of each cRNA in RNase-free water using the Drummond nanoject II microinjector. Microinjected oocytes were kept at 20°C in incubation medium for 4 days to allow the receptors expression. Two-electrode voltage-clamp recordings were carried out using an Oocyte Clamp OC-725C amplifier (Warner instrument) in oocytes being voltage-clamped at -60mV. All agonist preparations were prepared with recording buffer (100 mM NaCl, 2.5 mM KCl, 1 mM CaCl2.2H2O, 5 mM HEPES, pH 7.3). Currents were recorded and analyzed using the pCLAMP 10.4 package (Molecular Devices).

Another assay relates to C. elegans N2. Put plainly: Dose-response thrashing assay on wild-type C. elegans N2. The class given is in vivo, Caenorhabditis elegans. The following applies: for Minimal drug concentration causing significant reduction in wild-type motility: 10 min exposure. On the procedure:
Worms were maintained at 20°C on nematode growth medium (NGM) plates and fed on a bacterial lawn (Escherichia coli OP50). Bristol N2 was used as a reference wild-type C. elegans strain. Dose-response assays were performed on gravid adults placed in wells of a 96-well plate containing M9 salt solution (3 g/L KH2PO4, 6 g/L Na2HPO4, 5 g/L NaCl, and 1 mM MgSO4 with BSA at 0.1%) with varying anthelmintic concentrations. After 10 min, worm thrashing was counted for 1 min. A thrash was defined as a change in the direction of bending at the mid-body to return to the initial position. For each drug concentration, 30 worms were tested. Hco-acr-26, Hco-acr-27, Peq-acr-26 and Peq-acr-27 coding sequences were sub-cloned into the pPD96.52 (Addgene) vector containing the muscle promoter Pmyo3. Primer sequences containing the suitable restriction sites are listed in S3 Table. Extrachromosomal transgenic strains of C. elegans were obtained by micro-injecting DNA into the gonads of young adult hermaphrodite worms as described. N2 worms were injected with different mixes containing Pmyo3::Hco-acr-26; Pmyo3::Hco-acr-27; Pmyo3::Peq-acr-26; Pmyo3::Peq-acr-27 alone or in combination (Pmyo3::Hco-acr-26 + Pmyo3::Hco-acr-27 or Pmyo3::Peq-acr-26 + Pmyo3::Peq-acr-27) with a final concentration of 40 ng/μl for each plasmid. The plasmid pPD118.33_Pmyo2::gfp (Addgene) was co-injected at 25 ng/μl as a transformation marker. For each mixes, at least two independent lines were generated. For each line, thrashing assays were carried on at least 12 F1-worms carrying the selection marker. L4 larvae from N2 and transformed worms were transferred one day before the thrashing assay on NGM plate. One young adult was placed in each well of a 12-well plate containing M9 salt buffer. Thrashes produced by each worm during 1 minute were counted after a 10 minutes equilibration period. After drug application, thrashes were counted after 10, 20 and 30 minutes of exposure. Experimental data are shown as mean ± SEM. Statistical comparisons were done using the paired or unpaired Student’s t test or one-way ANOVA with Tukey’s multiple comparison test. A level of p<0.05 was considered significant. For each line, expression of the introduced acr-26 and/or acr-27 coding sequences from H. contortus or P. equorum was confirmed by RT-PCR experiments performed on 12 pooled worms. A partial sequence corresponding to the C. elegans endogenous AChR unc-38 transcript was amplified with primers designed on two independent exons in order to control the cDNA template quality. Primer sequences are listed in S3 Table.
Supplementary file ppat.1005267.s004.tif: S4 Fig Thrashing assays performed on C. elegans (N2) with different anthelmintic molecules. […] Thrashes of gravid wild-type adults were counted for one minute after 10 minutes of drug exposure. […] Results are expressed as mean ± SEM derived from three independent sets of experiments. For each treatment, 30 worms were included in the analysis. […] Statistical analyses were performed using a One-Way Anova with Tukey’s Multiple Comparison Test with **p<0.01, ***p<0.001. (TIF) Click here for additional data file.

Another assay addresses Peq-26/27 receptor (Parascaris equorum, UniProt A0A0U2ES47+A0A0U2ES58). Nature of the assay: cell-based. The following applies: for Emax at 100 µM: read-out: Current elicited, % of ACh response. Here is the method:
In order to determine if ACR-26 and ACR-27 subunits from other parasitic nematodes species could also form functional receptors when expressed in Xenopus oocyte, Peq-acr-26 and Peq-acr-27 cRNAs from the distantly related P. equorum (Clade III) were co-injected in combination with Hco-ric-3.1, Hco-unc-74 and Hco-unc-50 cRNAs. Four days after injection, we observed robust expression of a functional AChR responding to 100 μM ACh (Fig 6B). […] This novel heteropentameric AChR was named Peq-26/27.
as §1

Assay [1] has as its system C. elegans expressing Peq-26/27. Nature of the assay: Thrashing assay on transgenic C. elegans expressing Peq-26/27. The class given is in vivo, Caenorhabditis elegans. From the text:
Taking advantage of the absence of acr-26 and acr-27 homologs in the C. elegans genome, we used wild type N2 worms to express these two parasitic nematode AChR subunits. […] For Peq-ACR-26 and Peq-ACR-27, even though the localization of these subunits in Parascaris equorum remains to be investigated in more detail, we also used myo3 as a promoter in order to compare the functional impact of Hco-26/27 and Peq-26/27 on both motility and drug sensitivity in transgenic C. elegans.
Worms were maintained at 20°C on nematode growth medium (NGM) plates and fed on a bacterial lawn (Escherichia coli OP50). Bristol N2 was used as a reference wild-type C. elegans strain. Dose-response assays were performed on gravid adults placed in wells of a 96-well plate containing M9 salt solution (3 g/L KH2PO4, 6 g/L Na2HPO4, 5 g/L NaCl, and 1 mM MgSO4 with BSA at 0.1%) with varying anthelmintic concentrations. After 10 min, worm thrashing was counted for 1 min. A thrash was defined as a change in the direction of bending at the mid-body to return to the initial position. For each drug concentration, 30 worms were tested. Hco-acr-26, Hco-acr-27, Peq-acr-26 and Peq-acr-27 coding sequences were sub-cloned into the pPD96.52 (Addgene) vector containing the muscle promoter Pmyo3. Primer sequences containing the suitable restriction sites are listed in S3 Table. Extrachromosomal transgenic strains of C. elegans were obtained by micro-injecting DNA into the gonads of young adult hermaphrodite worms as described. N2 worms were injected with different mixes containing Pmyo3::Hco-acr-26; Pmyo3::Hco-acr-27; Pmyo3::Peq-acr-26; Pmyo3::Peq-acr-27 alone or in combination (Pmyo3::Hco-acr-26 + Pmyo3::Hco-acr-27 or Pmyo3::Peq-acr-26 + Pmyo3::Peq-acr-27) with a final concentration of 40 ng/μl for each plasmid. The plasmid pPD118.33_Pmyo2::gfp (Addgene) was co-injected at 25 ng/μl as a transformation marker. […] Thrashes produced by each worm during 1 minute were counted after a 10 minutes equilibration period. After drug application, thrashes were counted after 10, 20 and 30 minutes of exposure. […]

Setting [2] is: read-out: Relative maximal current (Imax) normalized to 100 μM acetylcholine, cRNA ratio 1:1 26/27, 100 μM agonist.
The mark [3] stands for this setting: read-out: Relative maximal current (Imax) normalized to 100 μM acetylcholine, cRNA ratio 1:5 26/27, 100 μM agonist.
[4] abbreviates: read-out: Relative maximal current (Imax) normalized to 100 μM acetylcholine, cRNA ratio 5:1 26/27, 100 μM agonist.
Setting [5] is: Caenorhabditis elegans, 10 min, 10 min drug exposure, gravid adults, read-out: IC50 (reduction of thrashing).
[6] abbreviates: read-out: Current elicited, % of ACh response, 100 μM agonist, normalized to 100 μM ACh current, equal subunit ratio.

“And” between values parts separate entries of the source, which are not always exact repeats. Identical values can stand only once. Counter-ions that a name gives are not always drawn. Like-named read-outs stand apart in the source and are kept apart here.

Chain of Hco-26/27 receptor (A9XX30 entry or part of it): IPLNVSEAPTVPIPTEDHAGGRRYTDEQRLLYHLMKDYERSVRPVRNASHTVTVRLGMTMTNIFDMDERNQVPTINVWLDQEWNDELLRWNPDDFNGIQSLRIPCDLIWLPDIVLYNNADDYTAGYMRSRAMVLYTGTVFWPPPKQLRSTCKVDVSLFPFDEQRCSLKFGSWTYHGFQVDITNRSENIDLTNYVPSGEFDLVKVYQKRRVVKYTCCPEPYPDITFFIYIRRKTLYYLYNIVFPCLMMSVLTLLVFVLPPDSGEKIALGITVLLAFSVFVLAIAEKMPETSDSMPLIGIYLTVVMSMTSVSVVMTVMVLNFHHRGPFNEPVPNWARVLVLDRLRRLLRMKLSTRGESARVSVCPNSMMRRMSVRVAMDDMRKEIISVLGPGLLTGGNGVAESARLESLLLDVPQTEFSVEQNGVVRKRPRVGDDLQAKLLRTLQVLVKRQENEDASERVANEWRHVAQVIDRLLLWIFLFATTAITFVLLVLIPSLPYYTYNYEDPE
Chain of Hco-26/27 receptor (S4VAP0 entry or part of it): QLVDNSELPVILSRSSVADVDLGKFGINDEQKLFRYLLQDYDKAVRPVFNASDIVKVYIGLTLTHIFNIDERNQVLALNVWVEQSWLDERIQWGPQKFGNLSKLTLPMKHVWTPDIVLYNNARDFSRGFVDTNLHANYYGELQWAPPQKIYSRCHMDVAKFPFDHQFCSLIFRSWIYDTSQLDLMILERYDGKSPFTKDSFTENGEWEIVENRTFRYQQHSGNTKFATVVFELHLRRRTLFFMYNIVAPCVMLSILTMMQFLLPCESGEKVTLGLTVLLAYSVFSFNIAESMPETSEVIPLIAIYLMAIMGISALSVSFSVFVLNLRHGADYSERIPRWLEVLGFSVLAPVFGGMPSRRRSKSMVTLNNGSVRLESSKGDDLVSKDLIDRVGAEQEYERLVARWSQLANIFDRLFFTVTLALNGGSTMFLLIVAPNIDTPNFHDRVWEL
Chain of Peq-26/27 receptor (A0A0U2ES58 entry or part of it): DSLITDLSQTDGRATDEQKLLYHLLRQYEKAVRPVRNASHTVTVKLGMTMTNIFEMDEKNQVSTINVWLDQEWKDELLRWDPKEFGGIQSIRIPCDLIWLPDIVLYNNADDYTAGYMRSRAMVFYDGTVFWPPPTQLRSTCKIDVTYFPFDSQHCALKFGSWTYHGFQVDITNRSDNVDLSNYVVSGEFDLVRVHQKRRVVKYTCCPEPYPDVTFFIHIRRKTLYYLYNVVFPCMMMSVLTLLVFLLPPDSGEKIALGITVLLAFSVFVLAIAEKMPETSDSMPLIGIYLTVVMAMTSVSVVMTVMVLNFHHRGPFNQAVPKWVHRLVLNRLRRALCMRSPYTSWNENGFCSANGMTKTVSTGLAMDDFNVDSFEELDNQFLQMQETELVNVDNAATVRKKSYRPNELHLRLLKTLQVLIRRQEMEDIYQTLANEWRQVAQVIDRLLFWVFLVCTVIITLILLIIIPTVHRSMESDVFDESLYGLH
Chain of Peq-26/27 receptor (A0A0U2ES47 entry or part of it): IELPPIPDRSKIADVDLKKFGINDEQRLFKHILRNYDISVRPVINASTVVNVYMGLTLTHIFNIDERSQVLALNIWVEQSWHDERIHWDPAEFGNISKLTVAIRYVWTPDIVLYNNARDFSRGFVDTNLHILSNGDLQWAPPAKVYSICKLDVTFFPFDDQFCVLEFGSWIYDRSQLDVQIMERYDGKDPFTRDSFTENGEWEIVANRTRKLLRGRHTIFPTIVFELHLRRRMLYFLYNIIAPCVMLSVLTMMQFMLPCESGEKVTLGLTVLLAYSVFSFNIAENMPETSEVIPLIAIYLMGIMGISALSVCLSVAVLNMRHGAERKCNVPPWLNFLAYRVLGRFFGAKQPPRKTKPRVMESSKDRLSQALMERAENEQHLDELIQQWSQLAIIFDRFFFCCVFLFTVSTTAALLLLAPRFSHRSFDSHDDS

The term IC50 denotes the concentration that gives 50% inhibition. One may read the EC50 as the concentration giving half of the maximal effect. For `c1ccc([C@H]2CN3CCSC3=N2)cc1` [Lev, (-)-tetramisole hydrochloride], the “Current elicited, % of ACh response” value at Hco-26/27 receptor (100 μM agonist, normalized to 100 μM ACh current, equal subunit ratio) was “insensitive”. For the same compound, the Emax at 100 µM on Hco-26/27 receptor (setting [2]) turned out to be 3.46 ± 1.44%; on Hco-26/27 receptor (setting [3]) it was 4.18 ± 2.89%; on Hco-26/27 receptor (setting [4]), 1.77 ± 1.77%; at Peq-26/27 receptor it was 24.5 ± 2.4%. Besides, the “Minimal drug concentration causing significant reduction in wild-type motility” value with C. elegans N2 came out at 5 µM. Besides, the IC50 in the assay on C. elegans N2 (setting [5]) is 7 ± 1.1 µM. For the same compound, at Peq-26/27 receptor (EC50, responses normalized to 1 mM ACh), the EC50 is 16.7 µM and 17 µM. Further, the “Change in sensitivity versus N2” value in assay [1] (5 μM Lev) was “no significant change”.

Take `Cc1ccsc1/C=C/C1=NCCCN1C` [Mor, morantel]: at Hco-26/27 receptor, the EC50 turned out to be 29 ± 1.3 µM. The “Imax reduction with fivefold increase of Hco-ACR-27 versus equal subunit ratios” value on Hco-26/27 receptor (100 μM, p<0.001) was 2 fold. Further, the Emax at 100 µM came out at 249 ± 11.5% on Hco-26/27 receptor (setting [6]); 249 ± 11.5% at Hco-26/27 receptor (setting [2]); 137 ± 19.7% at Hco-26/27 receptor (setting [3]); 265 ± 29.1% at Hco-26/27 receptor (setting [4]); 74.5 ± 4.9% on Peq-26/27 receptor. Moreover, in the assay on C. elegans N2, the “Minimal drug concentration causing significant reduction in wild-type motility” value came to 40 µM. Moreover, the IC50 is 44 ± 1.03 µM in the assay with C. elegans N2 (Caenorhabditis elegans, 10 min, read-out: IC50 (reduction of thrashing), 10 min drug exposure, gravid adults) and 44.1 ± 1 µM in the assay on C. elegans N2 (read-out: IC50 (reduction of thrashing), 10 min drug exposure, gravid adults). The “Reduction of thrashing motility” value in assay [1] (40 μM Mor, 10 minutes exposure) is 62.7%.

With `CN1CCCN=C1/C=C/c1cccs1` [Pyr, pyrantel], the EC50 at Hco-26/27 receptor is 6.8 ± 1.3 µM. The Emax at 100 µM is 81 ± 6.21% on Hco-26/27 receptor (setting [6]); 81 ± 6.21% on Hco-26/27 receptor (setting [2]); 83.1 ± 17.9% at Hco-26/27 receptor (setting [3]); 84.1 ± 8.54% on Hco-26/27 receptor (setting [4]); 21.8 ± 2.1% on Peq-26/27 receptor. In addition, the “Minimal drug concentration causing significant reduction in wild-type motility” value in the assay with C. elegans N2 was determined as 50 µM. For the same compound, the concentration for half-maximal inhibition (IC50) with C. elegans N2 (setting [5]) amounted to 107 ± 1.2 µM. In addition, the “Percentage reduction of thrashes min^-1” value in assay [1] (50 μM Pyr, 10 minutes of drug exposure) came out at 61.6%.
